The values that follow are results of earlier work, collected in PMC4139154 (Biochemistry, 2014).

The target in data set [1] is nNOS. Conditions: read-out: Kd of imidazole for nNOS.
For data set [2], the target named is eNOS. Conditions: read-out: Kd of imidazole for eNOS.
Data set [3] concerns the target iNOS. Conditions: read-out: Kd of imidazole for iNOS.

Broadly, the Kd is a measure of binding affinity in units of concentration. Consider `c1c[nH]cn1` [imidazole], for which the dissociation constant (Kd) was 160 µM in data set [1], 150 µM in data set [2] and 42 µM in data set [3].
